Reference: PubChem BioAssay (NCI)
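Assay format: 96-well plates, 48-hour exposure. GI50 = concentration required for 50% inhibition of growth. TGI: concentration producing complete growth inhibition.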

Legend:
Assay in all cases: NCI anticancer screen, dose series, 48 h
[1] = system: 786-0 renal
[2] = system: EKVX NSCLC
[3] = system: HCT-116 colon
[4] = system: HCT-15 colon
[5] = system: HL-60(TB) leukemia
[6] = system: HS 578T breast
[7] = system: KM12 colon
[8] = system: MALME-3M melanoma
[9] = system: MDA-MB-435
[10] = system: MDA-N
[11] = system: A498 renal

Structure (SMILES) | TGI [1] [µM] | TGI [2] [µM] | TGI [3] [µM] | TGI [4] [µM] | TGI [5] [µM] | TGI [6] [µM] | TGI [7] [µM] | TGI [8] [µM] | TGI [9] [µM] | TGI [10] [µM] | TGI [11] [µM] | GI50 [11] [µM] | GI50 [2] [µM] | GI50 [3] [µM] | GI50 [4] [µM] | GI50 [5] [µM] | GI50 [6] [µM] | GI50 [7] [µM] | GI50 [8] [µM] | GI50 [9] [µM]
Cc1cc(S(=O)(=O)N=C2Nc3cccc4cccc(c34)N2)c(S)cc1Cl | > 100 | > 100 | 83.8 | > 100 | > 100 | > 100 | > 100 | > 100 | > 100 | > 100 |  |  |  |  |  |  |  |  |  | 
CSc1nc(Cl)c2c(n1)Sc1nc3ccccc3n1C2O (stereo not drawn) | 18 | > 100 | > 33.1 | > 40.2 |  | > 68.8 | > 21.2 | > 67.3 | > 44.2 | > 100 | > 100 |  |  |  |  |  |  |  |  | 
CCOC(=O)/C=C/CCC(C)(C)COC(C)=O | > 10 | > 10 | > 10 | > 10 | > 10 | > 10 | > 10 |  | > 10 | > 10 |  |  |  |  |  |  |  |  |  | 
O=[N+]([O-])c1ccc(-c2csc(=[N+]3CCCCC3)s2)cc1 | > 100 | > 100 | > 100 | > 100 | > 86.6 |  | > 100 | 32.1 |  |  | 63.6 |  |  |  |  |  |  |  |  | 
COc1ccc(C(=O)/C=C/SC(=NC#N)SC)cc1 | 38.8 | > 100 | 28.1 | 28.8 | > 100 | 68.3 | 63.9 | 50.3 | 49.2 |  | 60.7 |  |  |  |  |  |  |  |  | 
CCCCNC(=O)Cn1c2ccc(Br)cc2c2nc3ccccc3nc21 | > 100 |  | > 100 |  |  | > 100 | > 100 |  | > 100 | > 100 | > 100 |  |  |  |  |  |  |  |  | 
C=CN(C=C)C(=O)Cn1cc(-c2ccccc2)nn1 | > 100 | > 100 | > 100 | > 100 | > 100 |  | > 100 | > 100 | > 100 |  |  |  |  |  |  |  |  |  |  | 
COc1cc2c(c(OC)c1)[C@H](C)N(Cc1ccccc1)C(C)C2 (stereo partly drawn) | > 100 | > 100 | > 100 | > 100 | 24.8 | > 100 | > 100 | > 100 | 37.8 |  | > 100 |  |  |  |  |  |  |  |  | 
CCN(CC)CCCCNc1c2ccc(Cl)cc2nc2ccc(OC)cc12 |  | 3.98 | 1.94 | 1.62 | 3.2 | 4.76 | 2.61 | 3.65 | 2.31 |  | 2.52 | 1.21 | 0.608 | 0.301 | 0.289 | 1.03 | 1.83 | 0.456 | 1.54 | 1.05
CN1c2ccccc2C2=C(c3ccccc3)CC[C@@H](C(=O)N3C4CC5CC[C@@]4(CS3(=O)=O)C5(C)C)[C@@H]21 (stereo partly drawn) | > 100 | > 100 | > 100 | > 100 |  | > 100 | > 100 | > 100 | > 100 | > 100 | > 100 |  |  |  |  |  |  |  |  | 
NC(=O)c1ccc[n+](C2=C([O-])c3ccccc3C(=O)/C2=N\S(=O)(=O)c2ccccc2)c1 | 32.3 | 27.8 | 32.4 | 95.9 | > 100 | 47.3 | 26.7 | 20.1 | 17.2 | 31 |  |  |  |  |  |  |  |  |  | 
O=c1c2cc([N+](=O)[O-])ccc2oc2nc3n(c(=O)c12)CCCS3 | > 100 | > 100 | > 100 | > 100 |  | > 100 | > 100 | > 100 | > 100 | > 100 | > 100 |  |  |  |  |  |  |  |  | 
CC[C@H](NC(=O)OC(C)(C)C)C(=O)NCP(=O)(OCc1ccc([N+](=O)[O-])cc1)OCc1ccc([N+](=O)[O-])cc1 | > 100 |  | > 100 | > 100 | 62.2 | > 100 | > 100 | > 100 | > 100 | 86.1 |  |  |  |  |  |  |  |  |  | 
CC[C@]12C=CCN3CCC4(c5cc([C@@]6(C(=O)OC)CC7CN(CCc8c6[nH]c6ccccc86)CC6CCCCC67)c(OC)cc5N(C)C4[C@](O)(C(=O)OC)C1OC(C)=O)[C@@H]32 (stereo partly drawn) | 11 | 21.7 | 0.0631 | 20.1 | > 100 | < 0.01 | 15.7 | 7.05 | < 0.01 |  | 0.576 |  |  |  | 0.693 |  |  |  |  | 
Cc1nc2c(=O)n(-c3ccccc3)c(=O)n(-c3ccccc3)c2o1 | > 100 | > 100 | > 100 | > 100 |  | > 100 | > 100 | > 100 | > 100 | > 100 | > 100 |  |  |  |  |  |  |  |  | 
O=c1c2ccc(Cl)cc2oc2c(CNc3ccc(S(=O)(=O)Nc4ncccn4)cc3)cccc12 | > 100 | > 100 | > 100 | > 100 | > 100 |  | > 100 | > 100 | > 100 | > 100 | > 100 |  |  |  |  |  |  |  |  | 
CN(C)CCNCCCNc1c2ccccc2nc2cccc([N+](=O)[O-])c12 | 0.106 | 0.0617 | 0.0594 | 0.569 | 0.0247 | 0.384 | 0.111 | 0.104 | 0.0313 |  | 0.0588 |  |  |  |  |  |  |  |  | 
CN(C)/N=N/c1nc2c(c(=O)n(C)c(=O)n2C)n1CC1CO1 (stereo not drawn) | 57.5 | 57.9 | 24 | 29.1 | > 100 |  | 50.7 | 25.1 | 35.6 | 46.7 |  |  |  |  |  |  |  |  |  | 
N#Cc1c(-c2ccc([N+](=O)[O-])cc2)c(C#N)c(=O)n(NS(=O)(=O)c2ccccc2)c1O | > 100 | > 100 | > 100 | > 100 | > 100 |  |  | > 100 | > 100 | > 100 | > 100 |  |  |  |  |  |  |  |  | 
CC(C)=C/C(CC(O)(C(F)(F)F)C(F)(F)F)=N\O | > 100 | > 100 | > 100 | > 100 | > 100 | > 100 | > 100 | > 100 | > 100 |  | > 100 |  |  |  |  |  |  |  |  | 
